Experimental data from article PMC12595484, “Optimizing multifunctional fluorescent ligands for intracellular labeling” (Proceedings of the National Academy of Sciences of the …, 2025).
“And” between values parts separate entries of the source, which are not always exact repeats. Equal values may be shown once. Read-outs that look alike come from different tables or passages of the source.

Experiments:
[1] = test system: OMP25–msGFP–HaloTag fusion protein in HEK293T cells; test: Pulse–chase HaloTag labeling efficiency, SDS–PAGE/in-gel fluorescence; format: cell-based; details: 2 h, mean ± SEM
Protocol: PBS, 2% (v/v) SDS, 1% (v/v) Triton x-100, 10 mM EDTA, and protease inhibitors (2 mM PMSF, aprotinin, leupeptin, and pepstatin A). Samples were then incubated at 50 °C for 3–4 min after the addition of Laemmli sample buffer (SB; Bio-Rad, 1610747) with β-mercaptoethanol (Bio-Rad, 1610710). For protein detection, 10–20 µL of the sample was subjected to SDS-PAGE, using 10% Tris-Glycine gels (TGX) (Bio-Rad, 5671034) with Tris-Glycine buffer (Bio-Rad, 1610732). […]
Quantification of HaloTag labeling efficiency using in-gel fluorescence. HEK293T cells were cultured, incubated and transfected with pF(UG) hSyn HaloTag-TEV-4×GS-msGFP-mito using lipofectamine LTX reagent as described above. To examine saturation of HaloTag, we screened for fluorescence plateau using 1 μM of JF479-HaloTag ligand,4 JF549-HaloTag ligand (2HTL) and […]
(2HTL) and JF608-HaloTag ligand (3HTL) reached a fluorescence plateau, and they were chosen as saturating counter stains or “chase” dyes for examining the labeling efficiency of biotin-JF-HaloTag ligands (13HTL–16HTL). Next, we developed an in-gel assay to independently quantitate labeling efficiencies of 13HTL–16HTL. We used JF549-HaloTag ligand (2HTL) as chase for evaluating biotin-JF608-HaloTag ligand (14HTL), biotin-JF646-HaloTag ligand (15HTL), and biotin-JF635-HaloTag ligand (16HTL). We used JF608-HaloTag ligand (3HTL) as chase for evaluating biotin-JF549-HaloTag ligand (13HTL). Each experiment consisted of testing the biotin variants 13HTL–16HTL at 100 nM and 1 μM with an incubation time of 2 h and a chase labeling incubation of 1 μM for 0.5 h. The 0.5 h chase labeling period was included with the 2 h total incubation. Each experiment consisted of the following conditions: untransfected cells; (A) transduced, but no dye; (B) non-biotinylated variant of primary label at 1 μM for 0.5 h; (C) the nonbiotinylated version of the chase JF dye at 1 μM for 0.5 h; (D) 100 nM of the nonbiotinylated version of the primary label for 2 h; (E) 100 nM of the biotinylated version of primary label for 2 h; (F) 1 μM of the nonbiotinylated version of the primary label for 2 h; (G) 1 μM of the biotinylated version of primary label for 2 h; and (H) 1 μM of the non-biotinylated version of the chase JF dye at 1 μM for 2 h. This last condition H was the same as condition C but with a longer incubation (2 h vs. 0.5 h) to allow independent verification of the chase saturation using 0.5 h incubation. Samples D–G were incubated with a nonbiotinylated chase dye at 1 μM for 0.5 h. Cells were washed and protein lysates were harvested using Bio-Rad SDS-PAGE products as described above. Specifically, cells were lysed using protein lysis buffer as described above, and adding XT Sample Buffer (Bio-Rad, 1610791) and XT Reducing Agent (Bio-Rad, 1610792). Samples were heated at 72 °C for 5 min. Samples were then loaded onto a 4–12% Criterion XT Bis-Tris gel (Bio-Rad, 3450124) and ran at 150 V for approximately 1 h. Gels were then imaged on a Chemidoc MP imager (Bio-Rad) using orange, red, and far-red filters. Bands representing HaloTag ligand were quantified by densitometry using […]
(§1) labeling efficiency calculations, bands representing saturating chase dye fluorescence (e.g., JF549) were compared to saturating primary dye fluorescence allowing estimation of the amount of […]
Where F is the fraction of HaloTag protein labeled, Ce is the experimental chase dye fluorescence signal after incubation with pulse biotin-JF-HaloTag ligand, and Cs is the saturating chase dye fluorescence without incubation with a pulse ligand.
Neuro2a cell culture, labeling, lattice light sheet microscopy (LLSM), and confocal microscopy. Neuro2a cells (ATCC, CCL-131) were cultured in Eagle's minimum essential medium (MEM, phenol red-free; Life Technologies) supplemented with 10% (v/v) fetal bovine serum (FBS), and maintained at 37 °C in a humidified 5% (v/v) CO2 environment. Cells were transiently transfected using nucleofection (Lonza) with plasmids constitutively expressing

[2] = test system: sfGFP–BRD4 in Neuro2a cells expressing coilin–HaloTag; test: BRD4 translocation to coilin–HaloTag, LLSM; format: cell-based
Protocol: The ability of JQ1 ligands to enter living cells and recruit BRD4 to defined genomic regions was evaluated using lattice light sheet fluorescence microscopy (LLSM). Neuro2a cells were transiently transfected with plasmids encoding three fusion proteins: i) HaloTag protein fused to coilin, […]; ii) superfolder GFP–BRD4; and iii) histone H2B–mCherry as a nuclear marker. The Cajal body component coilin localizes in distinct puncta in the nucleus ([62]) compared to the diffuse euchromatic distribution of BRD4. […]
Neuro2a cell culture, labeling, lattice light sheet microscopy (LLSM), and confocal microscopy. […]
Full 3D volumes at multiple stage positions were collected at 2 minute intervals for 90 minutes total. […] The recruitment of histone H3.3 was assessed by imaging after 24 h incubation with 19HTL. […]
LLSM imaging processing. Raw image data volumes were deskewed and rotated, then empirically deconvolved using a Richardson-Lucy maximum likelihood algorithm using experimentally measured PSFs for each color channel for 30 iterations. […] These segmentation masks were then used to isolate each nucleus for further quantitative analyses. […] The amount of BRD4 signal was then assessed in- versus outside HaloTag labeled domains throughout the 90-min time-lapse acquisition. […]

[3] = 1:1 (v/v) dioxane–water, cited from earlier work
[4] = parameters: method as in PMID 28869757, PMID 25599551; details: 10 mM HEPES, pH 7.3; ref 27 and 50; cited from earlier work
[5] = Determination of logD7.4 (miniaturized shake flask, octanol–PBS); format: physicochemical; details: pH 7.4
Protocol: Detailed descriptions of the materials and methods are provided in the supporting information. Multifunctional rhodamine–HaloTag ligands (13HTL–16HTL and 18HTL–20HTL) were synthesized using palladium-catalyzed cross-coupling reactions to install 3-carboxyazetidine moieties onto rhodamine scaffolds, followed by amide bond formation with biotin–PEG2–NH2, (S)-JQ1–PEG2–NH2, or (R)-JQ1–PEG2–NH2. Spectroscopic properties (λabs, λem, ε, and Φf) were determined in 10 mM HEPES, pH 7.3. The lactone–zwitterion equilibrium constants (KL–Z) were measured in 1:1 (v/v) dioxane–water mixtures. Octanol–water distribution coefficients (logD7.4) were determined by miniaturized shake-flask partitioning experiments using PBS (pH 7.4) and 1-octanol. Cell culture experiments employed HEK293T, U2OS, and Neuro2a cells transfected with HaloTag fusion constructs and labeled with ligands (100 nM to 1 μM, 0.5 to 2 h at 37 °C), followed by fluorescence microscopy using confocal or lattice light-sheet microscopy. Affinity purification studies utilized streptavidin magnetic beads to capture biotin-labeled HaloTag conjugates, with analysis by SDS-PAGE and in-gel fluorescence detection. […]
Reported values are averages of at least two measurements.
Determination of logD7.4. The log of distribution coefficients at pH 7.4 was determined in octanol–phosphate-buffered saline (PBS) using a miniaturized shake flask setup described previously.6, 7 Briefly, 150 mL each of octanol and PBS pH 7.4 were stirred vigorously for 12–16 h. The layers were allowed to stand for at least 24 h for phase separation. The separated layers were collected and served as PBS saturated with octanol (PBS*) and octanol saturated with PBS (octanol*). Stock solutions (1 mM or 5 mM) of ligands were prepared in DMSO and diluted in PBS* to obtain 1 μM or 10 μM (3–5 mL) of the standard (std). This standard was used to prepare appropriate dilutions using octanol*, in triplicate, in 2-mL glass vials. The leftover standard was used to determine the standard concentration (Cstd). The vials were vortexed for 1 min and shaken horizontally at 700 rpm for 2 h. The vials were then shaken upright at 150 rpm for 2 h to allow the phases to separate. The octanol* layer was pipetted out, and the PBS* layer was used for further analyses. The concentrations of ligands in the standard and PBS* (CPBS*) were determined via fluorescence measurements of 200 μL of PBS* or std in 96-well plates on the Cytation 5 Multimode Plate Reader (BioTek). For Si-rhodamine containing ligands, 2–20 μL of […]
trifluoroacetic acid was added to each well of the 96-well plate prior to the fluorescence measurements. Reported values are averages of at least two measurements. The logD7.4 was obtained as described previously using equation 2: logD = log *’(" × r − 1. +)*+∗ / (2) […]
where Cstd is the standard concentration in PBS, CPBS* is the concentration in PBS after partitioning, r is the dilution factor of the standard solution, VPBS* is the volume of PBS used in the partitioning, and Voctanol* is the volume of octanol used in the partitioning.
Plasmid construction for mitochondria imaging and affinity purification. HaloTag, amplified from the pHTC HaloTag CMV-neo Vector (Promega; G7711) and monomeric-superfolder green fluorescent protein (msGFP; lab stock), was fused to the mitochondrial targeting signal from OMP25,8 interspacing flexible GS(GSS)4 linkers between each domain by PCR Splicing by Overlap Extension (SOE). This construct was subcloned into hSynapsin promoter bearing a copy of FUGW.9 FUGW was a gift from David Baltimore (Addgene plasmid # 14883; RRID:
Addgene_14883).10 This construct was designated as pF(UG) hSyn HaloTag-TEV-4×GS-msGFP- […]
HEK293T cell culture. HEK293T cells (ATCC) were passaged before 80% confluency by trypsinization (Corning; 25-053-CI) and trituration. The cell suspension was then plated on glass coverslips (Warner instruments; 64-0734, CS-18R17) coated with poly-D-lysine (Thermofisher; […]

[6] = test system: sfGFP–BRD4 in Neuro2a cells expressing HP1a–HaloTag; test: BRD4 translocation to HP1a–HaloTag, LLSM; format: cell-based; details: 90 min
Text: Given its lower fluorescence background and more efficacious recruitment of BRD4, we focused on (S)-JQ1–JF635–HaloTag ligand (19HTL) for subsequent experiments. To test the generality of 19HTL in recruiting BRD4, we imaged cells expressing heterochromatin protein 1a (HP1a) fused to HaloTag (Fig. 7A). HP1a is localized within constitutive heterochromatin as its N-terminal chromodomain binds to methylated histone H3 ([65]).
(2HTL) and JF608-HaloTag ligand (3HTL) reached a fluorescence plateau, and they were chosen as saturating counter stains or “chase” dyes for examining the labeling efficiency of biotin-JF-HaloTag ligands (13HTL–16HTL). Next, we developed an in-gel assay to independently quantitate labeling efficiencies of 13HTL–16HTL. […] Bands representing HaloTag ligand were quantified by densitometry using […]
as §1
Where F is the fraction of HaloTag protein labeled, Ce is the experimental chase dye fluorescence signal after incubation with pulse biotin-JF-HaloTag ligand, and Cs is the saturating chase dye fluorescence without incubation with a pulse ligand. […]

| Compound | Φf [4] | ε [4] | λabs [4] | λem [4] | logD [5] | also measured |
| --- | --- | --- | --- | --- | --- | --- |
| O=C(CCCC[C@@H]1SC[C@@H]2NC(=O)N[C@@H]21)NCCOCCOCCCCCCCl [17HTL, biotin–HaloTag ligand, reference compound] |  |  |  |  |  | labeling efficiency ([1]; 100 nM pulse): 32.0 ± 9.3%; labeling efficiency ([1]; 1 µM pulse): 92.1 ± 0.4% |
| Cc1sc2c(c1C)C(c1ccc(Cl)cc1)=N[C@@H](CC(=O)OC(C)(C)C)c1nnc(C)n1-2 [JQ1, (S)-JQ1, reference compound] |  |  |  |  |  | effect of excess free JQ1 on BRD4 recruitment by 19HTL ([2]; 25 μM (S)-JQ1 with 20 nM 19HTL, coilin–HaloTag, confocal): inhibited BRD4 recruitment |
| C[Si]1(C)c2cc(N3CCC3)ccc2C2(OC(=O)c3ccccc32)c2ccc(N3CCC3)cc21 [compound 5, Janelia Fluor 646] | 0.54 | 5,000 M^−1cm^−1 | 646 nm | 664 nm | 3.98 | KL–Z ([3]; parent dyes, ref 27 and 50): 0.0014 |
| C[Si]1(C)c2cc(N3CC(F)C3)ccc2C2(OC(=O)c3ccccc32)c2ccc(N3CC(F)C3)cc21 [compound 6, JF635] | 0.66 | ~ 400 M^−1cm^−1 | 635 nm | 652 nm | 4.1 | KL–Z [3]: ≈ 0.0001 and 0.0001 |
| (R)-JQ1–JF635–HaloTag ligand [20HTL] |  |  |  |  |  | BRD4 recruitment to coilin–HaloTag sites ([2]; Neuro2a cells, LLSM, 90 min): no GFP–BRD4 recruitment; BRD4 translocation to HP1a–HaloTag [6]: no GFP–BRD4 recruitment |
